# Test system: leukopenia caused by 5-FU
# Test: hemopoietic effect in animal experimentation: leukopenia caused by 5-FU in rats, blood cell counts
# Format: in vivo
# [1] = male rats, 5-FU 100 mg/kg orally twice on 8th day, blood after 14 days, mean ± SEM
# [2] = rats, 5-FU model, values of Table 1
# [3] = rats, p<0.01 vs control (5-FU), p<0.05 vs trial 1
compound,measurement,setting,value
"O=c1[nH]cc(F)c(=O)[nH]1 [Trial 5-FU, 5-fluorouracil]",GrC. (granulocyte),[1],0.66 ± 0.11 × 10^3/μl
same,LymC. (lymphocyte),[1],2.21 ± 0.15 × 10^3/μl
same,MonoC. (monocyte),[1],0.84 ± 0.12 × 10^3/μl
same,Platelet,[1],983.5 ± 52.0 × 10^3/μl
same,RBC (red blood cell),[1],9.58 ± 0.14 × 10^6/μl
same,WBC (white blood cell),[1],3.70 ± 0.23 × 10^3/μl
same,granulocyte (mean),[2],0.66 ± 0.11 10^3/µL
same,lymphocyte (mean),[2],2.21 ± 0.15 10^3/µL
same,monocyte (mean),[2],0.84 ± 0.12 10^3/µL
same,white blood cells (mean),[2],3.7 ± 0.23 10^3/µL
same,effect on granulocytes (in words),"rats, p<0.01 vs control (5-FU) or vs trial 1",inhibited
same,effect on lymphocytes (in words),[3],inhibited
same,effect on monocytes (in words),[3],inhibited
same,effect on white blood cells (in words),"rats, unpaired student t test, p<0.01 vs control (5-FU) or vs trial 1",inhibited
